Source: patent publication EP0326490B2, “Synthetic peptides and mixtures thereof for detecting HIV antibodies” (ADALTIS INC., priority 1988, dated 2004)
Positions of bridges follow the written chain, without caps; N, C: chain ends. Residues, ends and D or L forms follow the SMILES beside them.

Columns and labels:
[1] = system: HIV-1 positive serum samples; assay: ELISA serum titers on plates coated with cyclic versus linear peptide; type: binding, human; settings: for serum titer (serum dilution giving an absorbancy reading of 1.0): coated at 10 µg/ml
Excerpt: (§1) Even though results presented in TABLE 5 clearly show the superiority of cyclic peptides over their linear counterpart in detecting HIV-1-antibodies, that increased sensitivity could have been underestimated because of probable cyclization and polymerization of the linear peptide after solubilization in a carbonate buffer (pH 9.6). That experiment was repeated with the linear 87 and cyclic 87c peptides dissolved in a carbonate buffer (pH 9.6) as before and also in 10% acetic acid (pH 2.7). […] It is believed that cyclization and polymerization also occured in the wells of the microtiter plates although the exact proportion of cyclic peptide bound to the plates versus linear has not been as yet determined.
Plates used in this experiment were coated with solutions of peptides at 10 µg/ml. (Experimental results of TABLE 5 were obtained with plates coated with peptides at 0.5 µg/ml). Four different HIV-1 positive serum samples were serially diluted and their titers determined. The titer was defined as the serum dilution giving an absorbancy reading of 1.0 in the conditions of the ELISA procedure already described.
The ratios of sensitivities measured with the cyclic peptide over the linear 87 peptide vary between 1.3 and 2.2 with an average of 1.8. These ratios are even larger, varying from 3.0 to 4.5, when the sensitivity of the ELISA test using the cyclic 87c peptide is compared using conditions (acidic pH) where the linear 87 peptide remains linear and is not allowed to cyclize or polymerize.
(§2) Each well of the microtiter plate is saturated with 100 µl of a solution containing a peptide or mixture of peptides (5 µg/ml) and left overnight. The wells are emptied and washed twice with a washing buffer (Tris, 0.043M; NaCl, 0.5M;thimerosal, 0.01% w/v; Tween 20, 0.05% v/v; pH 7.4). The wells are then saturated with […] of washing buffer for 1 hr. at 37°C and washed once with the same buffer. Serum samples to be analyzed are diluted with specimen buffer (washing buffer plus casein, 0.05% w/v). The bells are rinsed with washing buffer prior to the addition of the diluted serum sample (0.1 ml). These are left to incubate for 1 hr. at room temperature. The wells are then emptied, washed twice rapidly and then once for two minutes with washing buffer. […] The wells are then emptied and washed twice rapidly with washing buffer and then five times in which the buffer was in contact with the well 2 minutes per washing. The substrate solution (3,3', 5,5'-tetramethylbenzidine, 8 mg per ml of DMSO) is diluted with 100 volumes 0.1 M citrate-acetate buffer, pH 5.6 containing 0.1% v/v of 30% H2O2 and added to each well (0.1 ml per well). After 10 minutes the contents of each well is treated with 0.1 ml 2N H2SO4 and the optical density read at 450 nm. All determinations are done in duplicate.

[2] = Stability of linear and cyclic peptide in coating buffers (HPLC, Ellman's test); type: physicochemical; settings: 10% acetic acid (pH 2.7)
Excerpt: as §1

[3] = system: HIV-1 positive sera; assay: ELISA, single peptides identifying HIV-1 positive sera; type: binding, human; settings: single gp41 or gp120 peptide
Method: (§3) According to this test a peptide or a peptide mixture of the present invention is adsorbed onto the wells of a microtiter plate. The wells are then treated with sera to be tested. After washing, anti-human IgG labeled with peroxidase is added to the wells. The determination of the peroxidase is performed with a corresponding substrate, e.g. with o-phenylene diamine. Also in this procedure the peroxidase can be exchanged by another label, e.g. by a radioactive or fluorescence label.
as §2

[4] = system: HIV-1-antibodies; assay: ELISA optical density of serially diluted sera, cyclic versus non-cyclic peptides; type: binding, human; settings: coated at 0.5 µg/ml
Excerpt: TABLE 5 is provided to illustrate the sensitivity of cyclic versus non-cyclic peptides in the ELISA test by comparing the results of some sera at various dilutions.
as §1, with “determined. […]” for “determined.”
as §2

[5] = system: HIV-2 positive sera; assay: ELISA, single peptides identifying HIV-2 positive sera; type: binding, human; settings: single peptide
Method: as §3, with “A preferred convenient and classical technique for the determination of antibodies against AIDS virus using a peptide or a peptide mixture of the present invention is an enzyme-linked immunosorbent assay (ELISA). According” for “According”, “label. […]” for “label.”
TABLE 4 provides the results of single peptides which were individually evaluated in identifying known HIV-2 positive sera.
Each well of the microtiter plate is saturated with 100 µl of a solution containing a peptide or mixture of peptides (5 µg/ml) and left overnight. […] Serum samples to be analyzed are diluted with specimen buffer (washing buffer plus casein, 0.05% w/v). […] After 10 minutes the contents of each well is treated with 0.1 ml 2N H2SO4 and the optical density read at 450 nm. […]

CC[C@H](C)[C@H](NC(=O)CNC(=O)[C@H](CC(C)C)NC(=O)[C@H](CC(C)C)NC(=O)[C@H](CCC(N)=O)NC(=O)[C@H](CCC(N)=O)NC(=O)[C@H](CC(=O)O)NC(=O)[C@H](CCCCN)NC(=O)[C@H](CC(C)C)NC(=O)[C@H](Cc1ccc(O)cc1)NC(=O)[C@H](CCCNC(=N)N)NC(=O)[C@H](CCC(=O)O)NC(=O)[C@@H](NC(=O)[C@H](C)NC(=O)[C@H](CC(C)C)NC(=O)[C@@H](NC(=O)[C@@H](N)CCCNC(=N)N)[C@@H](C)CC)C(C)C)C(=O)N[C@@H](Cc1c[nH]c2ccccc12)C(=O)NCC(=O)N[C@H]1CSSC[C@@H](C(=O)N[C@H](C(=O)N[C@H](C(=O)N[C@@H](C)C(=O)N[C@H](C(=O)N2CCC[C@H]2C(=O)N[C@@H](Cc2c[nH]c3ccccc23)C(=O)N[C@@H](CC(N)=O)C(=O)N[C@@H](C)C(=O)N[C@@H](CO)C(=O)O)C(C)C)[C@@H](C)O)[C@@H](C)O)NC(=O)[C@H]([C@@H](C)CC)NC(=O)[C@H](CC(C)C)NC(=O)[C@H](CCCCN)NC(=O)CNC(=O)[C@H](CO)NC1=O [Peptide 87c] (H-RILAVERYLKDQQLLGIWGCSGKLICTTAVPWNAS-OH; disulfide 20-26)
A B (titer 87c cyclic over titer 87 linear) ([1]; 10% Acetic Acid (pH 2.7), serum M-5): 3.0 | A B (titer 87c cyclic over titer 87 linear) ([1]; 10% Acetic Acid (pH 2.7), serum M-7): 3.9 | A B (titer 87c cyclic over titer 87 linear) ([1]; 10% Acetic Acid (pH 2.7), serum M-8): 4.5 | A B (titer 87c cyclic over titer 87 linear) ([1]; 10% Acetic Acid (pH 2.7), serum M-16): 3.7 | A B (titer 87c cyclic over titer 87 linear) ([1]; Carbonate Bicarbonate 0.1M (pH 9.6), serum M-5): 1.3 | A B (titer 87c cyclic over titer 87 linear) ([1]; Carbonate Bicarbonate 0.1M (pH 9.6), serum M-7): 1.8 | A B (titer 87c cyclic over titer 87 linear) ([1]; Carbonate Bicarbonate 0.1M (pH 9.6), serum M-8): 2.2 | A B (titer 87c cyclic over titer 87 linear) ([1]; Carbonate Bicarbonate 0.1M (pH 9.6), serum M-16): 1.7 | ratios of sensitivities measured with the cyclic peptide over the linear 87 peptide, average ([1]; carbonate buffer (pH 9.6), average over four sera): 1.8 | serum titer (serum dilution giving an absorbancy reading of 1.0) ([1]; coating buffer 10% Acetic Acid (pH 2.7), serum M-5): 13 500 | serum titer (serum dilution giving an absorbancy reading of 1.0) ([1]; coating buffer 10% Acetic Acid (pH 2.7), serum M-7): 9 000 | serum titer (serum dilution giving an absorbancy reading of 1.0) ([1]; coating buffer 10% Acetic Acid (pH 2.7), serum M-8): 6 300 | serum titer (serum dilution giving an absorbancy reading of 1.0) ([1]; coating buffer 10% Acetic Acid (pH 2.7), serum M-16): 56 000 | serum titer (serum dilution giving an absorbancy reading of 1.0) ([1]; coating buffer Carbonate Bicarbonate 0.1M (pH 9.6), serum M-5): 13 500 | serum titer (serum dilution giving an absorbancy reading of 1.0) ([1]; coating buffer Carbonate Bicarbonate 0.1M (pH 9.6), serum M-7): 11 000 | serum titer (serum dilution giving an absorbancy reading of 1.0) ([1]; coating buffer Carbonate Bicarbonate 0.1M (pH 9.6), serum M-8): 6500 | serum titer (serum dilution giving an absorbancy reading of 1.0) ([1]; coating buffer Carbonate Bicarbonate 0.1M (pH 9.6), serum M-16): 56 000 | stability in solution (HPLC, Ellman's test) [2]: remained cyclic | % Positive Sera correctly Idenfitied [3]: 99% | Relative performance in ELISA (optical density) ([4]; serum 87V103, dilution 1/50): 0.011 optical density units | Relative performance in ELISA (optical density) ([4]; serum 1428, dilution 1/50): >2.0 optical density units | Relative performance in ELISA (optical density) ([4]; serum M-5, dilution 1 50): >2.0 optical density units | Relative performance in ELISA (optical density) ([4]; serum M-5, dilution 1/100): >2.0 optical density units | Relative performance in ELISA (optical density) ([4]; serum M-5, dilution 1/200): >2.0 optical density units | Relative performance in ELISA (optical density) ([4]; serum M-5, dilution 1/400): >2.0 optical density units | Relative performance in ELISA (optical density) ([4]; serum M-5, dilution 1/800): 1.854 optical density units | Relative performance in ELISA (optical density) ([4]; serum M-7, dilution 1/50): >2.0 optical density units | Relative performance in ELISA (optical density) ([4]; serum M-7, dilution 1/100): >2.0 optical density units | Relative performance in ELISA (optical density) ([4]; serum M-7, dilution 1/200): 1.729 optical density units | Relative performance in ELISA (optical density) ([4]; serum M-7, dilution 1/400): 1.348 optical density units | Relative performance in ELISA (optical density) ([4]; serum M-7, dilution 1/800): 0.611 optical density units | Relative performance in ELISA (optical density) ([4]; serum M-8, dilution 1/50): >2.0 optical density units | Relative performance in ELISA (optical density) ([4]; serum M-8, dilution 1/100): >2.0 optical density units | Relative performance in ELISA (optical density) ([4]; serum M-8, dilution 1/200): 1.655 optical density units | Relative performance in ELISA (optical density) ([4]; serum M-8, dilution 1/400): 1.064 optical density units | Relative performance in ELISA (optical density) ([4]; serum M-8, dilution 1/800): 0.384 optical density units | Relative performance in ELISA (optical density) ([4]; serum M-16, dilution 1/50): >2.0 optical density units | Relative performance in ELISA (optical density) ([4]; serum M-16, dilution 1/100): >2.0 optical density units | Relative performance in ELISA (optical density) ([4]; serum M-16, dilution 1/200): >2.0 optical density units | Relative performance in ELISA (optical density) ([4]; serum M-16, dilution 1/400): >2.0 optical density units | Relative performance in ELISA (optical density) ([4]; serum M-16, dilution 1/800): 1.962 optical density units

CC[C@H](C)[C@H](NC(=O)[C@H](CCC(=O)O)NC(=O)[C@@H](NC(=O)[C@@H](N)CC(C)C)C(C)C)C(=O)N[C@H](C(=O)N1CCC[C@H]1C(=O)N[C@H](C(=O)NCC(=O)N[C@@H](Cc1ccccc1)C(=O)N[C@@H](C)C(=O)N1CCC[C@H]1C(=O)N[C@H](C(=O)N[C@@H](CCCCN)C(=O)N[C@@H](CCC(=O)O)C(=O)N[C@@H](CCCCN)C(=O)N[C@@H](CCCNC(=N)N)C(=O)N[C@@H](Cc1ccc(O)cc1)C(=O)N[C@@H](CO)C(=O)N[C@@H](CO)C(=O)N[C@@H](C)C(=O)N[C@@H](Cc1c[nH]cn1)C(=O)NCC(=O)N[C@@H](CCCNC(=N)N)C(=O)O)[C@@H](C)O)[C@@H](C)CC)[C@@H](C)O [Peptide 203]
%Positive sera correctly Identified [5]: 100%
